Results as given in article PMC6726534 (Biotechnology and bioengineering, 2019).
Converted amounts (≈) assume the structure as drawn. Where a SMILES comes first, the peptide text is derived from it.

How the values were obtained:
Format in all cases: cell-based
[1] = test system: E. coli JW0013; conditions: JW0013, 1 h
[2] = test system: E. coli J2210; conditions: J2210, 1 h
[3] = test system: Salmonella enterica serovar Enteritidis MH91989; conditions: serovar Enteritidis MH91989, 1 h
[4] = test system: Salmonella enterica serovar Typhimurium ATCC SL1344; conditions: ATCC SL1344, 1 h
[5] = test system: E. coli JJ2489; conditions: JJ2489, 1 h
[6] = test system: E. coli FVEC 638; conditions: FVEC 638, 1 h
[7] = test system: E. coli FVEC 964; conditions: FVEC 964, 1 h
[8] = test system: E. coli PUTI 379; conditions: PUTI 379, 1 h
[9] = test system: Salmonella enterica serovar Tennessee; conditions: 1 h
[10] = test system: Salmonella enterica serovar Newport; conditions: 1 h
[11] = test system: Salmonella Infantis #129 B; conditions: 1 h

| Structure (SMILES) | MIC [1] | MIC [2] | MIC [3] | MIC [4] | MIC [5] | MIC [6] | MIC [7] | MIC [8] | MIC [9] | MIC [10] | MIC [11] |
| --- | --- | --- | --- | --- | --- | --- | --- | --- | --- | --- | --- |
| CC(C)C[C@H](NC(=O)[C@H](CCCNC(=N)N)NC(=O)[C@@H]1CCCN1C(=O)[C@H](CCCNC(=N)N)NC(=O)[C@@H]1CCCN1C(=O)[C@@H]1CCCN1C(=O)[C@H](CCCNC(=N)N)NC(=O)[C@@H]1CCCN1C(=O)[C@H](CCC(N)=O)NC(=O)[C@@H]1CCCN1C(=O)[C@H](CCCCN)NC(=O)[C@H](Cc1ccc(O)cc1)NC(=O)[C@@H](NC(=O)[C@@H]1CCCN1C(=O)[C@H](CCCNC(=N)N)NC(=O)[C@H](CC(N)=O)NC(=O)[C@H](CC(N)=O)NC(=O)CN)C(C)C)C(=O)O [Api_I8K/H15R] (H-GNNRPVYKPQPRPPRPRL-OH) | 0.062 ± 0.027 µM (≈ 0.133 µg/mL) | 0.252 ± 0.087 µM (≈ 0.54 µg/mL) | 0.096 ± 0.023 µM (≈ 0.206 µg/mL) | 0.192 ± 0.044 µM (≈ 0.411 µg/mL) | – | – | – | – | – | – | – |
| CC(C)C[C@H](NC(=O)[C@H](CCCNC(=N)N)NC(=O)[C@@H]1CCCN1C(=O)[C@H](CCCNC(=N)N)NC(=O)[C@@H]1CCCN1C(=O)[C@@H]1CCCN1C(=O)[C@H](CCCNC(=N)N)NC(=O)[C@@H]1CCCN1C(=O)[C@H](CCC(N)=O)NC(=O)[C@@H]1CCCN1C(=O)[C@H](CCCNC(=N)N)NC(=O)[C@H](Cc1ccc(O)cc1)NC(=O)[C@@H](NC(=O)[C@@H]1CCCN1C(=O)[C@H](CCCNC(=N)N)NC(=O)[C@H](CC(N)=O)NC(=O)[C@H](CC(N)=O)NC(=O)CN)C(C)C)C(=O)O [Api_I8R/H15R] (H-GNNRPVYRPQPRPPRPRL-OH) | 0.048 ± 0.011 µM (≈ 0.104 µg/mL) | – | 0.067 ± 0.033 µM (≈ 0.145 µg/mL) | – | – | – | – | – | – | – | – |
| CC[C@H](C)[C@H](NC(=O)[C@H](Cc1ccc(O)cc1)NC(=O)[C@@H](NC(=O)[C@@H]1CCCN1C(=O)[C@H](CCCCN)NC(=O)[C@H](CC(N)=O)NC(=O)[C@H](CC(N)=O)NC(=O)CN)C(C)C)C(=O)N1CCC[C@H]1C(=O)N[C@@H](CCC(N)=O)C(=O)N1CCC[C@H]1C(=O)N[C@@H](CCCNC(=N)N)C(=O)N1CCC[C@H]1C(=O)N1CCC[C@H]1C(=O)N[C@@H](CCCNC(=N)N)C(=O)N1CCC[C@H]1C(=O)N[C@@H](CCCNC(=N)N)C(=O)N[C@@H](CC(C)C)C(=O)O [Api_R4K/H15R] (H-GNNKPVYIPQPRPPRPRL-OH) | 0.048 ± 0.011 µM (≈ 0.101 µg/mL) | 0.133 ± 0.061 µM (≈ 0.279 µg/mL) | 0.067 ± 0.033 µM (≈ 0.141 µg/mL) | 0.126 ± 0.052 µM (≈ 0.265 µg/mL) | 0.067 ± 0.033 µM (≈ 0.141 µg/mL) | – | – | – | – | – | – |
| CC(C)C[C@H](NC(=O)[C@H](CCCNC(=N)N)NC(=O)[C@@H]1CCCN1C(=O)[C@H](CCCNC(=N)N)NC(=O)[C@@H]1CCCN1C(=O)[C@@H]1CCCN1C(=O)[C@H](CCCNC(=N)N)NC(=O)[C@@H]1CCCN1C(=O)[C@H](CCC(N)=O)NC(=O)[C@@H]1CCCN1C(=O)[C@H](CCCCN)NC(=O)[C@H](Cc1ccc(O)cc1)NC(=O)[C@@H](NC(=O)[C@@H]1CCCN1C(=O)[C@H](CCCCN)NC(=O)[C@H](CC(N)=O)NC(=O)[C@H](CC(N)=O)NC(=O)CN)C(C)C)C(=O)O [Api_R4K/I8K/H15R] (H-GNNKPVYKPQPRPPRPRL-OH) | 0.096 ± 0.023 µM (≈ 0.203 µg/mL) | 0.267 ± 0.097 µM (≈ 0.565 µg/mL) | 0.133 ± 0.061 µM (≈ 0.281 µg/mL) | – | 0.252 ± 0.087 µM (≈ 0.533 µg/mL) | – | – | – | – | – | – |
| CC(C)C[C@H](NC(=O)[C@H](CCCNC(=N)N)NC(=O)[C@@H]1CCCN1C(=O)[C@H](Cc1c[nH]cn1)NC(=O)[C@@H]1CCCN1C(=O)[C@@H]1CCCN1C(=O)[C@H](CCCNC(=N)N)NC(=O)[C@@H]1CCCN1C(=O)[C@H](CCC(N)=O)NC(=O)[C@@H]1CCCN1C(=O)[C@H](CCCCN)NC(=O)[C@H](Cc1ccc(O)cc1)NC(=O)[C@@H](NC(=O)[C@@H]1CCCN1C(=O)[C@H](CCCCN)NC(=O)[C@H](CC(N)=O)NC(=O)[C@H](CC(N)=O)NC(=O)CN)C(C)C)C(=O)O [Api_R4K/I8K] (H-GNNKPVYKPQPRPPHPRL-OH) | 0.012 ± 0.003 µM (≈ 0.0251 µg/mL) | 0.034 ± 0.017 µM (≈ 0.0712 µg/mL) | 0.031 ± 0.014 µM (≈ 0.065 µg/mL) | 0.034 ± 0.017 µM (≈ 0.0712 µg/mL) | 0.031 ± 0.014 µM (≈ 0.065 µg/mL) | 0.048 ± 0.011 µM (≈ 0.101 µg/mL) | 0.048 ± 0.011 µM (≈ 0.101 µg/mL) | 0.048 ± 0.011 µM (≈ 0.101 µg/mL) | 0.024 ± 0.006 µM (≈ 0.0503 µg/mL) | 0.024 ± 0.006 µM (≈ 0.0503 µg/mL) | 0.024 ± 0.006 µM (≈ 0.0503 µg/mL) |
| CC(C)C[C@H](NC(=O)[C@H](CCCNC(=N)N)NC(=O)[C@@H]1CCCN1C(=O)[C@H](CCCNC(=N)N)NC(=O)[C@@H]1CCCN1C(=O)[C@@H]1CCCN1C(=O)[C@H](CCCNC(=N)N)NC(=O)[C@@H]1CCCN1C(=O)[C@H](CCC(N)=O)NC(=O)[C@@H]1CCCN1C(=O)[C@H](CCCNC(=N)N)NC(=O)[C@H](Cc1ccc(O)cc1)NC(=O)[C@@H](NC(=O)[C@@H]1CCCN1C(=O)[C@H](CCCCN)NC(=O)[C@H](CC(N)=O)NC(=O)[C@H](CC(N)=O)NC(=O)CN)C(C)C)C(=O)O [Api_R4K/I8R/H15R] (H-GNNKPVYRPQPRPPRPRL-OH) | – | 0.252 ± 0.087 µM (≈ 0.54 µg/mL) | 0.096 ± 0.023 µM (≈ 0.206 µg/mL) | – | 0.133 ± 0.061 µM (≈ 0.285 µg/mL) | – | – | – | – | – | – |
